Activity calls are given as the source filed them.
How the values were obtained:
[1] = cells
[2] = biological target: T1, Oxysterols receptor LXR-beta (Homo sapiens, UniProt P55055); assay type: functional, cell-based;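 note: Cell-based luminescence dose-response assay of agonist activity at LXR, run as a confirmatory counterscreen to a daf-12 agonist screen; agonist potency from rising luciferase signal of a Gal4-LXR reporter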
T1 sequence (P55055 whole entry): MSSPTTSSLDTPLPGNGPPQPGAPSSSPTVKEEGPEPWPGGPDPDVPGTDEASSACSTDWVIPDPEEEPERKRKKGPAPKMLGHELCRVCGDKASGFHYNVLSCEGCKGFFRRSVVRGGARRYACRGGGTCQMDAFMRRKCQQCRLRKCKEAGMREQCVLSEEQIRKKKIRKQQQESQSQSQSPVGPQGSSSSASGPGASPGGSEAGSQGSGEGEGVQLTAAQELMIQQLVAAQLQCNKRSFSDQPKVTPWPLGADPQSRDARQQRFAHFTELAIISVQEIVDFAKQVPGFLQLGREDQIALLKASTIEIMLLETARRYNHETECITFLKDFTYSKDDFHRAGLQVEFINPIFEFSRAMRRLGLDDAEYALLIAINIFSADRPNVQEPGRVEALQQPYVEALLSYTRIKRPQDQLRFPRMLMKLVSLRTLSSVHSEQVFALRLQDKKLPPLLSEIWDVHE

[3] = Luminescence-based cell-based high throughput dose response assay to identify activators of the DAF-12 from the parasite S. stercoralis (ssDAF-12).; assay type: functional
[4] = biological target: T1, Oxysterols receptor LXR-beta; test: LXR agonists, Gal4 luciferase reporter, dose response, counter-screen for ssDAF-12 agonist project, cell-based, luminescence, HEK293, S. stercoralis campaign (AID 720737); assay type: functional; conditions: read-out: IC50 (the source's name)
[5] = fluconazole-exposed Candida albicans growth modulators – fluorescence, retest, confirmation (AID 2467); assay type: functional, cell-based
[6] = NIH-3T3 fibroblast cytotoxicity, dose response, cytotoxicity control, cell-based, fluorescence, Alamar Blue, secondary assay (AID 2327); assay type: functional;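 note: NIH-3T3 mouse fibroblasts cultured with fluconazole at 8 µg/mL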
[7] = viability loss in HepG2 hepatoma cells – cell-based, ATP luminescence, cherry-pick, activator set 2, cytotoxicity control, dose response (AID 1053143); assay type: functional
[8] = NIH3T3 cell viability loss – ATP luminescence, mouse fibroblasts, counter-screen, dose response (AID 2010); assay type: functional, cell-based;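 note: cells exposed to compound for about 90 hours before reading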
[9] = luciferase reporter signal suppression in cells – H4 neuroglioma cells, luminescence, dose response (AID 1990); assay type: functional, cell-based
[10] = alpha-synuclein stem-loop luciferase translation blockers – H4 neuroglioma cells, luminescence, confirmation (AID 1988); assay type: functional, cell-based
[11] = tested on: H9c2; test: cells; assay type: functional, cell-based; conditions: Rattus norvegicus, H9c2, Myocardium;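 note: confirmatory concentration-response retest of ultra-high-throughput screening hits for modulation of myocardial damage; cell death induced by hydrogen peroxide oxidative stress; compound pretreatment for 60 min then peroxide exposure for 2 h; potency is for protecting the cells against peroxide damage rather than for killing them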
[12] = cells; assay type: functional, cell-based
[13] = biological target: Albumin (Bos taurus, UniProt P02769); test: Counterscreen for inhibitors of T-cell receptor (TCR)-CD3 interaction: Fluorescence-based biochemical high throughput dose response assay to identify inhibitors of T-cell receptor (TCR)-CD3 interaction using a TAMRA-labeled BSA probe.; assay type: functional
Sequence of Albumin (P02769 whole entry): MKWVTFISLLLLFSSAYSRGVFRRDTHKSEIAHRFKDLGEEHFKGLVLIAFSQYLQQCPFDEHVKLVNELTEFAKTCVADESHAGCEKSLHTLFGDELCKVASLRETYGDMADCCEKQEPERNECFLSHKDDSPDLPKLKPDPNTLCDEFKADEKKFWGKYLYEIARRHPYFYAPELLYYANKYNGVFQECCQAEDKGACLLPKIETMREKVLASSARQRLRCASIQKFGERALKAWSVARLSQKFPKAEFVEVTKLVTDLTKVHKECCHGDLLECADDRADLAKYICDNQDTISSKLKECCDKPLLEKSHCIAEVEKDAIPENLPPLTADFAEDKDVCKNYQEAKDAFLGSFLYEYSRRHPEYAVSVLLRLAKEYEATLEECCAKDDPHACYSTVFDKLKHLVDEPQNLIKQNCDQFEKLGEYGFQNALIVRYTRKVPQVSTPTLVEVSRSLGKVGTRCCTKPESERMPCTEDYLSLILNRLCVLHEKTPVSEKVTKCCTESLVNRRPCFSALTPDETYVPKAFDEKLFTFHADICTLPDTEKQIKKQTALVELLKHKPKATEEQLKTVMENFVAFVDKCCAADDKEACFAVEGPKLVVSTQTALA

[14] = Trypanosoma cruzi growth suppression in host cells – NIH3T3 host cells, beta-gal luminescence, confirmation (AID 2044); assay type: functional, cell-based;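 note: intracellular parasites grown in NIH/3T3 mouse fibroblasts as host cells; luminescent beta-galactosidase reporter signal from transgenic T. cruzi replicating inside host cells; inhibitors lower the luminescence signal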
[15] = Luminescence Cell-Based Dose Response HTS to Identify Inhibitors of 5'UTR Stem-Loop Driven Prion Protein mRNA Translation in H4 Neuroglioblastoma Cells. [Related pubchem assays: 1827 (Project Summary), 1813 (Primary HTS)]; assay type: functional
[16] = cells; assay type: functional, cell-based; remark: listed apart in the source
[17] = Counterscreen for inhibitors of Trypanosoma brucei methionyl tRNA synthetase (MetRS): Luminescence-based cell-based high throughput dose response assay to identify compounds that are cytotoxic to Jurkat human T lymphocyte cells.; assay type: functional
[18] = M. tuberculosis H37Rv growth inhibitors, H37Rv strain (AID 1626); assay type: functional
[19] = biological target: T2, Methionyl-tRNA synthetase, putative (Trypanosoma brucei brucei, UniProt Q38C91); assay type: functional, Trypanosoma brucei brucei strain 927/4 GUTat10.1
T2 sequence (Q38C91 whole entry): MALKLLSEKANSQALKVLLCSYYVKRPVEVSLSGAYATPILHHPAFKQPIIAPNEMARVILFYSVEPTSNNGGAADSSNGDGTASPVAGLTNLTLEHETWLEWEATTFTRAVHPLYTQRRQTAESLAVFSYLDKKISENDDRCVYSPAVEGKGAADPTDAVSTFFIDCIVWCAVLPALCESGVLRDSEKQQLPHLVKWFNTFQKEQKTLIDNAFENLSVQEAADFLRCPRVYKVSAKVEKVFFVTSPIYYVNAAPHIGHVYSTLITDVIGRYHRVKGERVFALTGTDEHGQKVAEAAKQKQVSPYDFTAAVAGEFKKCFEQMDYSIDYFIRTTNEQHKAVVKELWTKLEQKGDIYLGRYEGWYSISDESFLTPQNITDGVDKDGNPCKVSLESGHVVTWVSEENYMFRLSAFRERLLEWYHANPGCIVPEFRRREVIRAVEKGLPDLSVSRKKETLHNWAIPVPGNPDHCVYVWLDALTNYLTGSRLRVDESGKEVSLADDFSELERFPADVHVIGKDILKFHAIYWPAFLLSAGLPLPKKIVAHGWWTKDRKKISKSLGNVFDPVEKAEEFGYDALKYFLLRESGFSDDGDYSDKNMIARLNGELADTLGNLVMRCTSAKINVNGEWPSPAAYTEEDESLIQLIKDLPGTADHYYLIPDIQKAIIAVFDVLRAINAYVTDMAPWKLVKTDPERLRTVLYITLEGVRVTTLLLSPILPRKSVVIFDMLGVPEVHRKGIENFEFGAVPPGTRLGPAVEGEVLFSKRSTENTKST

[20] = biological target: T3, Streptokinase A (Streptococcus pyogenes serotype M1, UniProt P10520); test: viability-normalized secreted streptokinase activity reduction – plasminogen activation absorbance, OD405, dose response (AID 1914); assay type: functional, Streptococcus pyogenes M1 GAS;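 note: secreted streptokinase activity via plasminogen activation per viability signal from cell pellet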
T3 sequence (P10520 whole entry): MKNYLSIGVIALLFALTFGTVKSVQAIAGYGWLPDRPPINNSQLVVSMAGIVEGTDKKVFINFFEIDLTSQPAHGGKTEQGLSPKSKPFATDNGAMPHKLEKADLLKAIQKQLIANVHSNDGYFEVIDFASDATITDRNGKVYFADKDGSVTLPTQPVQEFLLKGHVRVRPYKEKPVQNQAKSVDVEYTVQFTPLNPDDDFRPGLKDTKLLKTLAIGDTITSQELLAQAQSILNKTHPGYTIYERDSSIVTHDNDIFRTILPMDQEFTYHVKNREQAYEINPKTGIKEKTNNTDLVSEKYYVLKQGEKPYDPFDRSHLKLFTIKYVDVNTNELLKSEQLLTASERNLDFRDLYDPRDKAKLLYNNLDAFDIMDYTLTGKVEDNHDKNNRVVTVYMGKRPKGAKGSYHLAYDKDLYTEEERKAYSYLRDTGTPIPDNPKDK

[21] = tested on: Streptococcus; test: GAS UMAA2166 growth inhibition – luminescence, BacTiterGlo, counter-screen for streptokinase expression inhibitor project, dose response (AID 1915); assay type: functional, organism-based;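 note: potency for reduction of bacterial viability or growth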
[22] = tested on: Streptococcus sp. 'group A'; test: Streptococcus pyogenes SK(-)GAS viability under kanamycin – luminescence, BacTiterGlo, confirmation, counter-screen for streptokinase expression inhibitor project, dose response (AID 1900); assay type: functional, organism-based
[23] = biological target: T2, Methionyl-tRNA synthetase, putative; assay type: functional, Trypanosoma brucei brucei strain 927/4 GUTat10.1; remark: listed apart in the source
[24] = viability loss in HEK293 cells – cell-based, plate reader, cherry-picked samples, cytotoxicity control, dose response (AID 743446); assay type: functional
[25] = blockers of bursicon-stimulated LGR2 cAMP reporter – cell-based, HEK293, CRE-luciferase reporter, cherry pick, set 2, dose response (AID 743343); assay type: functional;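 note: transfected cells were stimulated with diluted bursicon conditioned medium after compound addition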
[26] = toxicity toward HepG2 liver cells – cell-based, plate reader, cherry-pick, antagonist series, cytotoxicity control, dose response (AID 743416); assay type: functional
[27] = A549 cell cytotoxicity, dose response, cytotoxicity control, plate reader, cherry-pick, antagonist series (AID 743412); assay type: functional, cell-based
[28] = blockade of melanocortin 4 receptor signaling – cell-based, plate reader, cherry pick, counter-screen for LGR2 antagonist project, dose response (AID 743444); assay type: functional;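 note: transfected HEK 293 cells stimulated with alpha-MSH peptide; potency of inhibitors of the alpha-MSH evoked signal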
[29] = viability of HCT116 lacking mutant beta-catenin – cell-based, human colon tumor, dose response (AID 1045); assay type: functional;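 note: HCT116 colon tumor cells with beta catenin knocked out; cells exposed to compound for 60 hours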
[30] = viability of PTEN-deleted HCT116 cells – cell-based, HCT116 PTEN knockout, dose response (AID 1047); assay type: functional;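 note: HCT116 colon tumor cells with PTEN knocked out; cells exposed to compound for 60 hours before readout; potency for loss of cell viability measured by luminescence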

Cc1sc(NC(=O)c2ccc(Cl)s2)c(C(N)=O)c1C
EC50 [1]: > 67.5 µM (inactive) | EC50 [2]: > 67.5 µM (inactive)

Cn1cnc(NCc2ccccc2)c1[N+](=O)[O-]
IC50 [3]: > 67.5 µM (inactive) | EC50 [4]: > 67.5 µM (inactive)

Cc1cccc(NC(S)=NNC(=O)c2cc3c(s2)CCC(C)C3)c1C (stereo unspecified)
IC50 [3]: > 67.5 µM (inactive) | EC50 [5]: > 38 µM (not active) | EC50 [4]: > 67.5 µM (inactive) | EC50 [6]: > 150 µM (inactive)

Cc1cc(C)cc(NC(=O)Nc2ccc(N3CCCCC3)cc2)c1
AC50 [7]: 26 µM (active)

COc1cc2ccccc2cc1C(=O)NNC(=O)c1ccccc1O
EC50 [8]: > 60 µM (not active) | EC50 [9]: > 60 µM (not active) | EC50 [10]: 16.1 µM (active) | IC50 [11]: > 79 µM (inactive) | EC50 [12]: > 350 µM (not active) | IC50 [13]: > 94.2 µM (inactive) | EC50 [14]: > 60 µM (not active) | EC50 [5]: > 38 µM (not active) | EC50 [15]: 14.9 µM (active) | EC50 [6]: > 150 µM (inactive) | EC50 [16]: > 350 µM (not active)

COc1ccc(-c2nnc(SC(C(=O)c3c[nH]c4ccccc34)c3ccccc3)n2N)cc1OC (stereo unspecified)
IC50 [17]: 83.3 µM (inactive) | IC50 [18]: > 100 µM (active) | IC50 [19]: 99 µM (inactive) | EC50 [20]: > 150 µM (not active) | EC50 [21]: 102 µM (active) | EC50 [22]: 8.65 µM (active) | IC50 [23]: 33.8 µM (inactive)

Cc1cccc(-c2noc(-c3ccc4c(c3)OCO4)n2)c1
AC50 [24]: > 52 µM (inactive) | AC50 [25]: 9.54 µM (active) | AC50 [26]: > 52 µM (inactive) | AC50 [27]: > 52 µM (inactive) | AC50 [28]: 12.1 µM (active)

Cc1ccc2nc(-c3ccc(NC(=O)COC(=O)c4ccc(Br)o4)cc3)sc2c1
EC50 [29]: 79.7 µM (active) | IC50 [3]: > 67.5 µM (inactive) | EC50 [4]: > 67.5 µM (inactive) | EC50 [30]: 37.3 µM (active)

— ChEMBL document CHEMBL1201862, “PubChem BioAssay data set” (2004)
